Experimental findings from patent US20160185774A1, “Anti-Infective Compounds” (priority 2013, published 2016) are described below.

The structures appear in SMILES notation. ≈ marks a conversion by molar mass, not a printed value. Bounds are passed on as bounds.

The assay has as its system M. tuberculosis. The assay is described as follows: microbe, parasite or virus in culture. In kind it is cell-based. Particulars: Mycobacterium tuberculosis, 120 h; read-out: QUM (MIC80).

`CCc1nc2ccc(Cl)cn2c1C(=O)NCc1ccc(N2CCN(c3ccc(C)cc3)CC2)cc1` [Compound 36]: the MIC80 is less than 1 µM. Under `CCc1nc2c(Br)cccn2c1C(=O)NCc1ccc(N2CCN(c3ccc(C(F)(F)F)cc3)CC2)cc1` [Compound 218] stands less than 1 µM; under `CCc1nc2ccc(OC)cn2c1C(=O)NCc1ccc(N2CCN(c3ccc(C(F)(F)F)cc3)CC2)cc1` [Compound 210], less than 1 µM. As for `CCc1nc2c(OC)cccn2c1C(=O)NCc1ccc(N2CCN(c3ccc(Cl)cc3)CC2)cc1` [Compound 103], the figure is 1 to 20 µM (≈ 0.504 to 10.1 µg/mL); as for `CCc1nc2ccc(C)cn2c1C(=O)NCc1ccc(N2CCC(c3ccccc3)CC2)cc1` [Compound 216], less than 1 µM. For the compound `CCc1nc2c(C(F)(F)F)cccn2c1C(=O)NCc1ccc(N2CCC(c3ccc(C(F)(F)F)cc3)CC2)cc1` [Compound 88], the MIC80 was in the range of 1 to 20 µM (≈ 0.575 to 11.5 µg/mL). Under `CCc1nc2cc(F)ccn2c1C(=O)NCc1ccc(N2CCN(c3ccc(C(F)(F)F)cc3)CC2)cc1` [Compound 229] stands less than 1 µM; under `CCc1nc2cc(C)ccn2c1C(=O)NCc1ccc(N2CCC(c3ccc(OC)cc3)CC2)cc1` [Compound 155], less than 1 µM. As for `CCc1nc2ccc(C(F)(F)F)cn2c1C(=O)NCc1ccc(N2CCC(c3ccc(OC)cc3)CC2)cc1` [Compound 120], the figure is less than 1 µM; as for `CCc1nc2cc(Br)ccn2c1C(=O)NCc1ccc(N2CCC(c3ccccc3)CC2)cc1` [Compound 113], less than 1 µM; as for `CCc1nc2ccc(OC)cn2c1C(=O)NCc1ccc(N2CCC(c3ccc(F)cc3)CC2)cc1` [Compound 179], less than 1 µM.

As to `CCc1nc2c(Br)cccn2c1C(=O)NCc1ccc(N2CCC(c3ccc(OC)cc3)CC2)cc1` [Compound 89], the MIC80 lay in the range of 1 to 20 µM (≈ 0.547 to 10.9 µg/mL). As for `CCc1nc2ccc(C)cn2c1C(=O)NCc1ccc(N2CCN(c3ccc(OC)cc3)CC2)cc1` [Compound 56], the figure is less than 1 µM. For the compound `CCc1nc2c(F)cccn2c1C(=O)NCc1ccc(N2CCC(c3ccc(C(F)(F)F)cc3)CC2)cc1` [Compound 12], the MIC80 was less than 1 µM. Under `CCc1nc2ccc(OC)cn2c1C(=O)NCc1ccc(N2CCC(c3ccc(C(F)(F)F)cc3)CC2)cc1` [Compound 126] stands less than 1 µM; under `CCc1nc2ccc(F)cn2c1C(=O)NCc1ccc(N2CCN(c3ccc(OC(F)(F)F)cc3)CC2)cc1` [Compound 42], less than 1 µM; under `CCc1nc2ccc(Br)cn2c1C(=O)NCc1ccc(N2CCC(c3ccc(OC)cc3)CC2)cc1` [Compound 2], less than 1 µM.

`CCc1nc2ccc(Cl)cn2c1C(=O)NCc1ccc(N2CCC(NC(=O)c3ccc(F)cc3)CC2)cc1` [Compound 234]: the MIC80 was more than 20 µM. On to `CCc1nc2cc(C)ccn2c1C(=O)NCc1ccc(N2CCN(c3ccc(OC)cc3)CC2)cc1` [Compound 54], for which the MIC80 was less than 1 µM. For `CCc1nc2ccc(Cl)cn2c1C(=O)NCc1ccc(C(=O)Nc2ccc(F)cc2)cc1` [Compound 301], the MIC80 was less than 1 µM. Under `CCc1nc2ccc(C)cn2c1C(=O)NCc1ccc(N2CCC(c3ccc(C(F)(F)F)cc3)CC2)cc1` [Compound 140] stands less than 1 µM; under `CCc1nc2cc(C)ccn2c1C(=O)NCc1ccc(N2CCC(c3ccc(Cl)cc3)CC2)cc1` [Compound 52], less than 1 µM.

Consider `CCc1nc2ccc(Br)cn2c1C(=O)NCc1ccc(N2CCC(c3ccccc3)CC2)cc1` [Compound 1], for which the MIC80 is less than 1 µM.

Take `CCc1nc2c(C)cccn2c1C(=O)NCc1ccc(N2CCN(c3ccc(F)cc3)CC2)cc1` [Compound 83]: the MIC80 is less than 1 µM. Take `CCc1nc2ccc(Cl)cn2c1C(=O)NCc1ccc(N2CCC(c3ccc(CO)cc3)CC2)cc1` [Compound 345]: the MIC80 is less than 1 µM. `CCc1nc2cc(Cl)ccn2c1C(=O)NCc1ccc(N2CCOCC2)c(F)c1` [Compound 308]: the MIC80 was less than 1 µM. Under `CCc1nc2ccc(Cl)cn2c1C(=O)NCc1ccc(/C=C/c2ccc(F)cc2)cc1` [Compound 246] stands less than 1 µM; under `CCc1nc2c(C(F)(F)F)cccn2c1C(=O)NCc1ccc(N2CCN(c3ccc(OC(F)(F)F)cc3)CC2)cc1` [Compound 202], 1 to 20 µM (≈ 0.592 to 11.8 µg/mL). Under `CCc1nc2ccc(C)cn2c1C(=O)NCc1ccc(N2CCN(c3ccccc3)CC2)cc1` [Compound 9] stands less than 1 µM.

Turning to `CCc1nc2ccc(Cl)cn2c1C(=O)NCc1ccc(C(=O)N(C)Cc2ccc(F)cc2)cc1` [Compound 317], the MIC80 lay in the range of 1 to 20 µM (≈ 0.479 to 9.58 µg/mL). For the compound `CCc1nc2c(C)cccn2c1C(=O)NCc1ccc(N2CCN(c3ccc(C)cc3)CC2)cc1` [Compound 39], the MIC80 was less than 1 µM. Under `CCc1nc2ccc(F)cn2c1C(=O)NCc1ccc(N2CCC(c3ccc(OC)cc3)CC2)cc1` [Compound 150] stands less than 1 µM; under `CCc1nc2cc(C)ccn2c1C(=O)NCc1ccc(N2CCC(c3ccc(C(F)(F)F)cc3)CC2)cc1` [Compound 51], less than 1 µM. As for `CCc1nc2cc(C)ccn2c1C(=O)NCc1ccc(N2CCN(c3ccccc3)CC2)cc1` [Compound 67], the figure is less than 1 µM. As for `Cc1nc2c(F)cccn2c1C(=O)NCc1ccc(N2CCC(c3ccc(OC(F)(F)F)cc3)CC2)cc1` [Compound 312], the figure is less than 1 µM; as for `CCc1nc2c(F)cccn2c1C(=O)NCc1ccc(N2CCN(c3ccc(OC(F)(F)F)cc3)CC2)cc1` [Compound 193], less than 1 µM; as for `CCc1nc2ccc(F)cn2c1C(=O)NCc1ccc(N2CCC(c3ccc(C(F)(F)F)cc3)CC2)cc1` [Compound 11], less than 1 µM. For the compound `Cc1nc2c(F)cccn2c1C(=O)NCc1ccc(N2CCC(c3ccc(F)cc3)CC2)cc1` [Compound 311], the MIC80 was less than 1 µM. As for `CCc1nc2ccc(Cl)cn2c1C(=O)NCc1ccc(N2CCC(c3ccc(C)cc3)CC2)cc1` [Compound 7], the figure is less than 1 µM; as for `CCc1nc2c(C)cccn2c1C(=O)NCc1ccc(N2CCC(c3ccc(OC)cc3)CC2)cc1` [Compound 8], less than 1 µM; as for `CCc1nc2c(Br)cccn2c1C(=O)NCc1ccc(N2CCC(c3ccccc3)CC2)cc1` [Compound 168], 1 to 20 µM (≈ 0.517 to 10.3 µg/mL). As for `CCc1nc2ccc(Cl)cn2c1C(=O)NCc1ccc(N2CCC(C(=O)OCCN3CCOCC3)CC2)cc1` [Compound 336], the figure is less than 1 µM; as for `CCc1nc2ccc(C(F)(F)F)cn2c1C(=O)NCc1ccc(N2CCC(c3ccc(C)cc3)CC2)cc1` [Compound 169], less than 1 µM. In the case of `CCc1nc2cc(OC)ccn2c1C(=O)NCc1ccc(N2CCC(c3ccc(F)cc3)CC2)cc1` [Compound 20], the MIC80 was less than 1 µM. In the case of `CCc1nc2c(Br)cccn2c1C(=O)NCc1ccc(N2CCN(c3ccc(Cl)cc3)CC2)cc1` [Compound 199], the MIC80 was less than 1 µM. As for `CCc1nc2cc(Cl)ccn2c1C(=O)NCc1ccc(N2CCN(c3ccc(C(F)(F)F)cc3)CC2)cc1` [Compound 204], the figure is less than 1 µM; as for `CCc1nc2ccccn2c1C(=O)NCc1ccc(N2CCC(c3ccccc3)CC2)cc1` [Compound 170], less than 1 µM; as for `CCc1nc2c(OC)cccn2c1C(=O)NCc1ccc(N2CCC(c3ccc(Cl)cc3)CC2)cc1` [Compound 212], 1 to 20 µM (≈ 0.503 to 10.1 µg/mL).

For the compound `CCc1nc2c(C(F)(F)F)cccn2c1C(=O)NCc1ccc(N2CCC(c3ccc(Cl)cc3)CC2)cc1` [Compound 22], the MIC80 was 1 to 20 µM (≈ 0.541 to 10.8 µg/mL).

For `CCc1nc2c(Br)cccn2c1C(=O)NCc1ccc(N2CCN(c3ccc(OC(F)(F)F)cc3)CC2)cc1` [Compound 94], the MIC80 is less than 1 µM. Under `CCc1nc2ccc(Br)cn2c1C(=O)NCc1ccc(N2CCN(c3ccc(OC(F)(F)F)cc3)CC2)cc1` [Compound 197] stands less than 1 µM; under `Cc1nc2ccc(F)cn2c1C(=O)NCc1ccc(N2CCC(c3ccc(C(F)(F)F)cc3)CC2)cc1` [Compound 315], less than 1 µM. On to `CCc1nc2cc(Br)ccn2c1C(=O)NCc1ccc(N2CCN(c3ccc(Cl)cc3)CC2)cc1` [Compound 135], for which the MIC80 is less than 1 µM. Under `CCc1nc2ccc(Br)cn2c1C(=O)NCc1ccc(N2CCC(c3ccc(C(F)(F)F)cc3)CC2)cc1` [Compound 136] stands less than 1 µM. Regarding `CCc1nc2ccc(F)cn2c1C(=O)NCc1ccc(N2CCN(c3ccc(C)cc3)CC2)cc1` [Compound 75], the MIC80 was less than 1 µM. For the compound `CCc1nc2cc(OC)ccn2c1C(=O)NCc1ccc(N2CCN(c3ccc(OC(F)(F)F)cc3)CC2)cc1` [Compound 10], the MIC80 is less than 1 µM. As for `CCc1nc2c(Br)cccn2c1C(=O)NCc1ccc(N2CCC(c3ccc(F)cc3)CC2)cc1` [Compound 189], the figure is 1 to 20 µM (≈ 0.535 to 10.7 µg/mL).

Consider `CCc1nc2c(F)cccn2c1C(=O)NCc1cccc(N2CCOCC2)c1` [Compound 281], for which the MIC80 fell in the range of 1 to 20 µM (≈ 0.382 to 7.65 µg/mL). On to `CCc1nc2c(C)cccn2c1C(=O)NCc1ccc(N2CCN(c3ccc(Cl)cc3)CC2)cc1` [Compound 43], for which the MIC80 was less than 1 µM.

Regarding `CCc1nc2ccc(C(F)(F)F)cn2c1C(=O)NCc1ccc(N2CCC(c3ccc(OC(F)(F)F)cc3)CC2)cc1` [Compound 223], the MIC80 was less than 1 µM.

Turning to `CCc1nc2c(F)cccn2c1C(=O)NCc1ccc(N2CCC(c3ccc(C)cc3)CC2)cc1` [Compound 6], the MIC80 is less than 1 µM.

Turning to `CCc1nc2ccc(Cl)cn2c1C(=O)NCc1ccc(N2CCN(C(=O)Cc3ccc(F)cc3)CC2)cc1` [Compound 236], the MIC80 is less than 1 µM.

With `CCc1nc2ccc(Cl)cn2c1C(=O)NCc1ccc2oc(CN3CCOCC3)nc2c1` [Compound 331], the MIC80 was in the range of 1 to 20 µM (≈ 0.454 to 9.08 µg/mL).

With `CCc1nc2c(F)cccn2c1C(=O)NCc1ccc(N2CCN(c3ccc(Cl)cc3)CC2)cc1` [Compound 63], the MIC80 is less than 1 µM. Under `CCc1nc2ccc(Cl)cn2c1C(=O)NCc1ccc(NC(=O)NC(C)(C)C)cc1` [Compound 278] stands 1 to 20 µM (≈ 0.428 to 8.56 µg/mL); under `CCc1nc2cc(Br)ccn2c1C(=O)NCc1ccc(N2CCC(c3ccc(C(F)(F)F)cc3)CC2)cc1` [Compound 132], less than 1 µM; under `CCc1nc2cc(C(F)(F)F)ccn2c1C(=O)NCc1ccc(N2CCN(c3ccc(Cl)cc3)CC2)cc1` [Compound 211], less than 1 µM. Under `CCc1nc2ccc(Cl)cn2c1C(=O)NCc1ccc(N2CCC(O)(CC)CC2)cc1` [Compound 238] stands less than 1 µM; under `CCc1nc2c(OC)cccn2c1C(=O)NCc1ccc(N2CCN(c3ccc(OC)cc3)CC2)cc1` [Compound 58], 1 to 20 µM (≈ 0.5 to 9.99 µg/mL).
